“And” between values parts separate entries of the source, which are not always exact repeats. Identical values can stand only once.
Experiment: xn = mol fraction of the nth substance listed

CC(C)OCCO + CC(=O)N(C)C
298.15 K, 101 kPa
Details | viscosity [mPa·s]
x1 = 0.0063 | 0.956
x1 = 0.014 | 0.97
x1 = 0.0243 | 0.983
x1 = 0.0518 | 1.016
x1 = 0.0792 | 1.049
x1 = 0.1131 | 1.092
x1 = 0.1712 | 1.167
x1 = 0.2095 | 1.225
x1 = 0.2923 | 1.336
x1 = 0.3534 | 1.422
x1 = 0.3673 | 1.443
x1 = 0.3996 | 1.494
x1 = 0.4419 | 1.555
x1 = 0.4958 | 1.63
x1 = 0.5445 | 1.704
x1 = 0.6028 | 1.782
x1 = 0.6671 | 1.871
x1 = 0.7594 | 1.973
x1 = 0.8097 | 2.044
x1 = 0.867 | 2.083
x1 = 0.9066 | 2.098
x1 = 0.9627 | 2.102
x2 = 0.006 | 2.106
x2 = 0.0146 | 2.105

CCCCOCCO + Cc1ccccc1C
viscosity [mPa·s], 101 kPa
Details | 298.15 K | 308.15 K
x1 = 0.0549 | 0.797 | 0.686
x1 = 0.1475 | 0.891 | 0.756
x1 = 0.2508 | 1.004 | 0.84
x1 = 0.3485 | 1.129 | 0.933
x1 = 0.4527 | 1.286 | 1.052
x1 = 0.5 | 1.366 | 1.113
x1 = 0.5489 | 1.457 | 1.182
x1 = 0.6483 | 1.666 | 1.341
x1 = 0.7518 | 1.925 | 1.54
x1 = 0.8493 | 2.216 | 1.765
x1 = 0.9524 | 2.586 | 2.053

C[N+](C)(C)C.[OH-] + CS(C)=O
viscosity [mPa·s], 100 kPa
Details | 298.15 K | 303.15 K | 308.15 K | 313.15 K
x1 = 0.0177 | 2.05 | 1.87 | 1.73 | 1.63
x1 = 0.0538 | 2.18 | 2.01 | 1.87 | 1.77
x1 = 0.091 | 2.24 | 2.07 | 1.94 | 1.86
x1 = 0.1294 | 2.34 | 2.18 | 2.06 | 1.98
x1 = 0.1691 | 2.44 | 2.3 | 2.18 | 2.1
x1 = 0.2101 | 2.55 | 2.42 | 2.3 | 2.23
x1 = 0.2314 | 2.61 | 2.48 | 2.36 | 2.3
x1 = 0.2961 | 2.76 | 2.64 | 2.54 | 2.48
x1 = 0.3645 | 2.9 | 2.81 | 2.71 | 2.65
x1 = 0.4366 | 3.04 | 2.94 | 2.86 | 2.81
x1 = 0.4868 | 3.12 | 3.03 | 2.95 | 2.91
x1 = 0.5388 | 3.18 | 3.1 | 3.02 | 2.98
x1 = 0.6206 | 3.25 | 3.17 | 3.09 | 3.07
x1 = 0.7071 | 3.26 | 3.2 | 3.12 | 3.1
x1 = 0.7677 | 3.23 | 3.18 | 3.1 | 3.06
x1 = 0.8307 | 3.15 | 3.12 | 3.05 | 3.02
x1 = 0.8963 | 3.03 | 3.02 | 2.94 | 2.9
x1 = 0.9647 | 2.86 | 2.84 | 2.76 | 2.71

CCCCOCCO + O=C1CCCCC1
298.15 K, 101 kPa
Details | viscosity
x2 = 0.118 | 2.522 mPa·s and 2.642 mPa·s
x2 = 0.2314 | 2.28 mPa·s and 2.518 mPa·s
x2 = 0.3404 | 2.108 mPa·s and 2.402 mPa·s
x2 = 0.4453 | 1.972 mPa·s and 2.304 mPa·s
x2 = 0.5463 | 1.873 mPa·s and 2.217 mPa·s
x2 = 0.6436 | 1.795 mPa·s and 2.146 mPa·s
x2 = 0.7375 | 1.763 mPa·s and 2.087 mPa·s
x2 = 0.8281 | 1.766 mPa·s and 2.048 mPa·s
x2 = 0.9155 | 1.822 mPa·s and 2.024 mPa·s

COC(=O)c1ccccc1 + CO
viscosity [mPa·s], 101.33 kPa
Details | x1 = 0.0499 | x1 = 0.0999 | x1 = 0.2 | x1 = 0.3001 | x1 = 0.4001 | x1 = 0.4999 | x1 = 0.5999 | x1 = 0.65 | x1 = 0.8001 | x1 = 0.9001
293.15 K | 0.653 | 0.721 | 0.86 | 0.997 | 1.133 | 1.263 | 1.395 | 1.461 | 1.673 | 1.834
298.15 K | 0.608 | 0.67 | 0.796 | 0.918 | 1.041 | 1.156 | 1.273 | 1.331 | 1.518 | 1.66
303.15 K | 0.568 | 0.625 | 0.738 | 0.849 | 0.958 | 1.062 | 1.167 | 1.22 | 1.387 | 1.511
308.15 K | 0.531 | 0.584 | 0.686 | 0.786 | 0.886 | 0.98 | 1.075 | 1.122 | 1.272 | 1.385
313.15 K | 0.499 | 0.547 | 0.64 | 0.732 | 0.822 | 0.907 | 0.993 | 1.036 | 1.173 | 1.275

CNC=O + CC(=O)N(C)C
viscosity [mPa·s], 101 kPa
Details | x2 = 0.0697 | x2 = 0.0811 | x2 = 0.1686 | x2 = 0.2571 | x2 = 0.3498 | x2 = 0.4488 | x2 = 0.545 | x2 = 0.6533 | x2 = 0.7606 | x2 = 0.8777
293.15 K | 1.824 | 1.81 | 1.709 | 1.612 | 1.516 | 1.422 | 1.337 | 1.252 | 1.176 | 1.101
303.15 K | 1.543 | 1.532 | 1.452 | 1.374 | 1.296 | 1.219 | 1.151 | 1.083 | 1.021 | 0.962
313.15 K | 1.325 | 1.316 | 1.252 | 1.188 | 1.125 | 1.063 | 1.007 | 0.95 | 0.9 | 0.85
323.15 K | 1.157 | 1.149 | 1.096 | 1.044 | 0.991 | 0.94 | 0.893 | 0.846 | 0.803 | 0.762

CC(C)CC(C)C + CCCCCCCCCCCCCCCC
101 kPa, x1 = 0.5
Details | viscosity [mPa·s]
298 K | 1.314
318 K | 0.9631

CCCCOCCO + CCCCO
101 kPa
Details | viscosity [mPa·s]
298.15 K, x1 = 0.7025 | 2.645
303.15 K, x1 = 0.4 | 2.255
303.15 K, x1 = 0.6054 | 2.345
303.15 K, x1 = 0.8042 | 2.475
308.15 K, x1 = 0.7025 | 2.045

From the CheMixHub viscosity set
